According to US20220152080A1 (priority 2019, published 2022):
pEC50, pIC50, pKi: −log10 of the molar value.

What was measured:
[1] = test system: vRNP nuclear export (viral NP protein), WSN/H1N1; type: cell-based, influenza A virus
[2] = test system: RanBP1 (Crm1 export pathway); type: cell-based
RSK1 [3] = type: cell-based
[4] = test system: viral NP protein (Serine residues 269 and 392); type: cell-based, influenza A virus
WSN/H1N1 = type: cell-based, influenza A virus; settings: read-out: EC50 (progeny virus titers)
RSK1 [5] = settings: in vitro; cited from earlier work
[6] = test system: vRNPs of WSN/H1N1, PR8M/H1N1, pdm09Hamburg/H1N1, Panama/H3N2, KAN-1/H5N1, Anhui/H7N9, SC35M/H7N7, B/Lee; type: cell-based, influenza A and B viruses; settings: 15 μM, treated 3 h p.i., fixed 9 h or 12 h p.i., MOI 5
GSK-3β = type: cell-based
vRNP-M1 interaction = type: cell-based, influenza A virus
[7] = test system: WSN/H1N1, PR8M/H1N1, pdm09Hamburg/H1N1, Panama/H3N2, KAN-1/H5N1, Anhui/H7N9, SC35M/H7N7, B/Lee; type: cell-based, influenza A and B viruses; settings: 15 μM, 24 h p.i., MOI 0.01, A549 or MDCKII cells, DMSO control = 100%
ERK1/2 [8] = type: cell-based
RSK substrate p140 = settings: not that of RSK or RSK upstream kinases even at 100 μM; cited from earlier work
[9] = target: p90 ribosomal S6 kinase (N-terminal kinase domain); settings: cited from earlier work
MCF-7 = settings: cited from earlier work
RSK2 = assay: TPA stimulation: nuclear localization of RSK2 in A549 cells; type: cell-based; settings: A549, TPA-stimulated, 1 h; unstimulated 29.37%±1.15%
Method: (§1) (A,C) A549 cells were stimulated with TPA (200 nM). The solvent DMSO served as negative control. After 1 h the cells were fixed and cellular localization of RSK2 or ERK1/2 (Alexa-561) was analyzed by epifluorescence microscopy. Nuclei were stained with Dapi. Dashed squares indicate zoom-in areas. Shown are representative epifluorescence microscopy pictures of single focal planes. Results of one out of three independent experiments are shown. Scale bar represents 50 μm.(B,D) Quantification of the cellular localization of RSK2 or ERK1/2 from (A,C). 15 epifluorescence microscopy pictures of each sample were analyzed in terms of the RSK2 localization using the ImageJ “Intensity Ratio Nuclei Cytoplasm Tool”. Results are depicted as means±SD of three independent experiments. Statistical significance was analyzed by unpaired t-test with Welch's correction (**p≤0.01).
(§2) To exclude unspecific staining of RSK2 and ERK1/2 the Raf/MEK/ERK-pathway was stimulated with TPA. It is known that the incubation with TPA leads to the activation of the Raf/MEK/ERK-pathway resulting in the nuclear localization of ERK1/2 and RSKs within minutes after the stimulation. […] After 1 h the cells were fixed and cellular localization of RSK2 or ERK1/2 (Alexa-561) was analyzed by epifluorescence microscopy. […] Statistical significance was analyzed by unpaired t-test with Welch's correction (**p≤0.01). […]

ERK1/2 [10] = assay: TPA stimulation: nuclear localization of ERK1/2 in A549 cells; type: cell-based; settings: A549, TPA-stimulated, 1 h; unstimulated 27.99%±1.97%
Method: as §1, §2

With `CCC(=C/[C@H](C)C/C=C/C(C)=C/[C@@H](C)C(=O)[C@@H](C)[C@H](O)[C@@H](C)C/C(C)=C/C(=O)O)/C=C/[C@@H]1OC(=O)C=C[C@@H]1C` [Leptomycin B] the “nuclear retention of the viral NP protein (vRNPs)” value (from here on “nuclear retention … (vRNPs)”) [1] was “highest retention rates” and the “nuclear retention of RanBP1” value [2] was “nuclear retention of RanBP1 was only detected for the Leptomycin B treated samples”.

With `O=C(NOCC1CC1)c1ccc(F)c(F)c1Nc1ccc(I)cc1Cl` [CI-1040] the “virus induced RSK activation” value (RSK1 [3]) was “blocked” and the “phosphorylation state of NP Serine residues 269 and 392” value [4] was “decreased phosphorylation state”.

In the case of `CC(C)CCN1c2nc(Nc3cc(F)c(O)c(F)c3)ncc2N(C)C(=O)C1C` (centres unmarked) [BI-D1870], the pEC50 (WSN/H1N1) is given as 5.55, the pIC50 (RSK1 [5]) is given as […] and the “nuclear retention of newly synthesized vRNPs, all tested viruses” value [6] is given as “nuclear retention of newly synthesized vRNPs”. The “nuclear retention … (vRNPs)” value [1] was “negatively affected the vRNP nuclear export”, the GSK-3ß phosphorylation (GSK-3β) was “concentration dependent reduction” and the “amount of M1 co-purified with Strep-PB2-vRNPs” value (vRNP-M1 interaction) was “decreased amount of M1”. For the same compound, the “reduction of progeny viral titers, all tested viruses” value [7] was 80 to 90% and the ERK1/2 phosphorylation state (ERK1/2 [8]) was “induction of the ERK1/2 phosphorylation state”.

For `O=C(O)c1ccc(F)c(F)c1Nc1ccc(I)cc1Cl` [ATR-002], the “nuclear retention … (vRNPs)” value [1] was “nuclear retention” and the “nuclear retention of RanBP1” value [2] was “not detected”.

For `CC(=O)O[C@@H]1[C@@H](OC(C)=O)[C@@H](O)[C@H](Oc2c(-c3ccc(O)cc3)oc3cc(O)cc(O)c3c2=O)O[C@H]1C` [SL0101-1], the pEC50 (WSN/H1N1) is listed as 4.98, the “block of PDB-induced cellular phosphorylation of p140” value (RSK substrate p140) is listed as “specifically block” and the pKi ([9]; selective, reversible, ATP-competitive) is listed as 6.00. For the same compound, the pIC50 ([9]; with 10 μM ATP, read-out: IC50 RSK kinase activity) was 7.05, the “nuclear retention … (vRNPs)” value [1] was “nuclear retention” and the “nuclear retention of RanBP1” value [2] was “not detected”. For the same compound, the “inhibition of proliferation of MCF-7” value (MCF-7) was “inhibit the proliferation of MCF-7”.

In the case of `CCCCCCCCCCCCCC(=O)O[C@@H]1[C@@H](C)[C@@]2(O)[C@@H](C=C(CO)C[C@]3(O)C(=O)C(C)=C[C@@H]23)[C@@H]2C(C)(C)[C@]12OC(C)=O` [TPA], the “nuclear accumulation of RSK2” value (RSK2) was 34.89%±0.67% and the “nuclear accumulation of ERK1/2” value (ERK1/2 [10]) was 48.02%±2.25%.
